From patent US9879013B2, “Purinone derivative” (ONO PHARMACEUTICAL CO., LTD., priority 2010, dated 2018)

Experiments:
Human liver cells = assay: Ability to reduce the mitochondrial membrane potential in cultured human hepatoma cells (JC-1); format: cell-based; details: JC-1, exposure for 24 hours, read-out: Ability to lower the mitochondrial membrane potential (IC50 (μM))
Excerpt: Measurement of the Cytotoxicity and Ability to Reduce the Mitochondrial Membrane Potential in Cultured Human Hepatoma Cells
Tissue that maintains an aerobic equilibrium, e.g., the kidneys and heart, and tissue that is exposed to high drug concentrations and carries out drug metabolism, e.g., the liver, are known to be sensitive to mitochondrial dysfunction (Drug Discovery Today, 12 (17-18), 777-785, 2007). The reduction or extinction of the mitochondrial membrane potential by a drug is caused by the direct inhibition of the electron transport system, decoupling of electron transport from ATP synthase, or the opening of a mitochondrial membrane permeability transition pore. As a consequence, measurement of the mitochondrial membrane potential of liver cells can provide a parameter for hepatotoxicity.
Human liver cells were seeded into a collagen-coated 96-well plate at a cell density of 30,000 cells/well and incubation was carried out overnight in an incubator at 37° C. in 5% CO2-95% air. The cultured cells were stained for 1 hour with 5,5′,6,6′-tetrahydro-1,1′,3,3′-tetramethyl-benzamidazolocarbocyanine iodide (JC-1) followed by treatment with the test compound. The test compound was dissolved in DMSO and then diluted with the liquid culture medium Hepatocyte Culture Medium (HCM) and added to the cells. The test compound treatment concentrations were 0, 6.25, 12.5, 25, 50, 100, 200, and 400 μmol/L. After exposure to the test compound for 24 hours, measurement was performed with a SpectraMax plate reader (Molecular Devices, LLC) at an excitation wavelength of 485 nm and a fluorescence wavelength of 538 nm and an excitation wavelength of 544 nm and a fluorescence wavelength of 590 nm. The membrane potential was determined by the ratio between the 544 nm/590 nm measurement value and the 485 nm/538 nm measurement value. After this, the ATP concentration in the cells was measured using a Celltiter Glo luminescent assay kit (Promega Corporation) in order to evaluate the cell toxicity of the test compound. The cells were lysed by the assay buffer provided with the measurement kit and the concentration of the ATP released from the cells was measured using the luciferin-luciferase enzyme activity as the index. The emission was measured using a SpectraMax plate reader. […] The ability to lower the mitochondrial membrane potential of the test compounds and the cytotoxicity of the test compounds are given in Table 3 below.

[1] = system: B cells (CD20-positive CD3-negative cells) of human PBMC; assay: B cell activation using human PBMC (CD69-positive signal, FACS); format: cell-based; details: anti-IgM antibody 1 μg/mL / IL-4 3 ng/mL, 22 hours
Procedure: (§1) Measurement of B Cell Activation or T Cell Activation Using Human PBMC
(§2) A 10 mmol/L solution of the test compound in DMSO was dispensed into a 96-well plate (Nunc) and a 5× dilution series was prepared using DMSO. A 100× concentration test compound dilution solution was prepared by an additional 10× dilution with RPMI1640 medium (contained 10% HI-FBS, 1% penicillin). Human peripheral blood mononuclear cells (PBMC) were diluted with the medium to provide a density of 2×10^6 cells/mL. 396 μL of the cell suspension was added to a 96-well plate into which 4 μL of the 100× concentration test compound dilution solution or the solvent (10% DMSO) had already been introduced and incubation was performed for 10 minutes at 37° C. and 5% CO2. 10 μL of an anti-IgM antibody (Southern Biotech)/IL-4 (R & D Systems) solution or an anti-CD3/CD28 antibody bead suspension (Invitrogen Corporation) was added to a 96-well plate and 90 μL of the cell suspension prepared as described above was also added (final concentrations: anti-IgM antibody=1 μg/mL, IL-4=3 ng/mL, and anti-CD3/CD28 antibody beads=2×10^6 beads/mL). 10 μL of the medium was added to the unstimulated sample wells in place of these stimulating substances, and standing at 37° C. and 5% CO2 was again performed. Incubation was carried out for 16 hours in the case of the evaluation of T cell activation and for 22 hours in the case of the evaluation of B cell activation. 100 μL Cytofix Buffer (BD Biosciences) was added; holding for 15 minutes at 37° C. was performed; centrifugation for 10 minutes at 1500 rpm was carried out; and the supernatant was removed. 200 μL of Perm buffer II (BD Biosciences) at −20° C. was added; holding for 30 minutes on ice was performed; centrifugation for 10 minutes at 1500 rpm was carried out; and the supernatant was removed. 0.5 mL Stain buffer (BD Biosciences) was added and centrifugation was carried out for 10 minutes at 1500 rpm. 100 μL of a mixed antibody solution was added and incubation was performed for 30 minutes on ice in the dark. The antibody was the 10× dilution with Stain Buffer of the 1:1:1 mixture of PerCP-labeled anti-CD3 antibody (BD Biosciences), AF488-labeled anti-CD20 antibody (BD Biosciences), and PE-labeled anti-CD69 antibody (BD Biosciences). 0.4 mL Stain Buffer was added and the supernatant was removed. […] The CD69-positive signal (average fluorescence intensity) of the CD20-positive CD3-negative cells (B cells) or CD3-positive CD20-negative cells (T cells) was measured. After subtracting the value for the unstimulated sample, the % inhibition with reference to the value for the stimulated control sample was determined. The % inhibition was graphically plotted using Prism (ver. 5.01 J, GraphPad Software) and the IC50 value was determined.

Fyn = Fyn (Homo sapiens (Human), UniProt P06241); assay: Fyn inhibitory activity, selectivity for Btk (Z'-LYTE kinase assay); format: biochemical; details: ratio of the IC50 values of the individual kinases
Procedure: (§3) The inhibitory activity for other kinases (for example, Lck, Fyn, and LynA (all from Invitrogen Corporation) was measured in the same manner as described above using the particular kinase in place of the Btk.

LynA = LynA (Homo sapiens (Human), UniProt P07948); assay: LynA inhibitory activity, selectivity for Btk (Z'-LYTE kinase assay); format: biochemical; details: ratio of the IC50 values of the individual kinases
Procedure: as §3

Btk = Btk (Homo sapiens (Human), UniProt Q06187); assay: Btk enzyme inhibitory activity (Z'-LYTE Kinase Assay Kit-Tyr1 peptide); format: biochemical; details: Tyr-1 peptide 4 μM, Btk 5 nM, ATP 36 μM, 1 hour at 30° C.
Procedure: The Btk enzyme inhibitory activity was measured, based on the protocol provided by the manufacturer, using Btk (Invitrogen Corporation) and the Z′-LYTE® Kinase Assay Kit-Tyr1 peptide (Invitrogen Corporation), which contained the following reagents: Tyr-1 peptide, Thy-1 phosphopeptide, 5× kinase buffer, ATP, development reagent B, development buffer, and stop reagent.
5 μL/well of a solution of the test compound diluted with dimethyl sulfoxide (DMSO), or DMSO, and 10 μL/well of the substrate/enzyme mixture solution were dispensed to a 96-well assay plate and a reaction was carried out for 20 minutes at 30° C. […] The enzymatic reaction was then stopped by adding 10 μL of the stop solution.
The percent inhibition (%) by the test compound was calculated using the following equation. percent inhibition (%) of phosphorylation=1−{(AC−AX)/(AC−AB)}×100 [E1]

[2] = system: T cells (CD3-positive CD20-negative cells) of human PBMC; assay: T cell activation using human PBMC (CD69-positive signal, FACS); format: cell-based; details: anti-CD3/CD28 antibody beads, 16 hours
Procedure: as §1, §2

Chain of LynA (P07948 whole entry): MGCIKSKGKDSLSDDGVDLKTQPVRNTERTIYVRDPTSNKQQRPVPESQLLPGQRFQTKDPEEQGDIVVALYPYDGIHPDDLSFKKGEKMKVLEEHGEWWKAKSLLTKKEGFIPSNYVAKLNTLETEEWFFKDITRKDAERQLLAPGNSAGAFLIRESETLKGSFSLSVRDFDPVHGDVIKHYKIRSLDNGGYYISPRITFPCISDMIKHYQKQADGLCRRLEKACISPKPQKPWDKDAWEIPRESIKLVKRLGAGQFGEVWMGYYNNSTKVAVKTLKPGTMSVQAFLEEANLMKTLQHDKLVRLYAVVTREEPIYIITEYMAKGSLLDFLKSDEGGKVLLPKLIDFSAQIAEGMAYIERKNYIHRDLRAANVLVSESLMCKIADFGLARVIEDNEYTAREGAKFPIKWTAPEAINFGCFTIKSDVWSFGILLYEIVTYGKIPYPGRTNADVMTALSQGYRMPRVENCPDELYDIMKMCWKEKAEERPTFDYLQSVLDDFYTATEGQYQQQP
Chain of Fyn (P06241 whole entry): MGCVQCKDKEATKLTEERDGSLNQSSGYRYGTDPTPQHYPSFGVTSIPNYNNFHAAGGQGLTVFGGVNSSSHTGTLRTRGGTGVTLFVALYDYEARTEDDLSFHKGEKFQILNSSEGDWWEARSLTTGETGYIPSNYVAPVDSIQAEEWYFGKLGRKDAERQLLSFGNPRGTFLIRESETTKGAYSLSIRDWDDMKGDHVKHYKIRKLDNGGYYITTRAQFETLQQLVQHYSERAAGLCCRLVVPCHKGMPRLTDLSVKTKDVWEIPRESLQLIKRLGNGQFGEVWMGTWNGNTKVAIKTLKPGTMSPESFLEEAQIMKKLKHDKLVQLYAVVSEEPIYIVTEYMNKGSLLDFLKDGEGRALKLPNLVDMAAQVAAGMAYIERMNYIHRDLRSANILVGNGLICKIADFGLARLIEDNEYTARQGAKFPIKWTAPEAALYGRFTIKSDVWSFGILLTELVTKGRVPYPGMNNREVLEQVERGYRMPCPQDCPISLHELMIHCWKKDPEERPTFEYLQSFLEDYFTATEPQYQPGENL
Chain of Btk (Q06187 whole entry): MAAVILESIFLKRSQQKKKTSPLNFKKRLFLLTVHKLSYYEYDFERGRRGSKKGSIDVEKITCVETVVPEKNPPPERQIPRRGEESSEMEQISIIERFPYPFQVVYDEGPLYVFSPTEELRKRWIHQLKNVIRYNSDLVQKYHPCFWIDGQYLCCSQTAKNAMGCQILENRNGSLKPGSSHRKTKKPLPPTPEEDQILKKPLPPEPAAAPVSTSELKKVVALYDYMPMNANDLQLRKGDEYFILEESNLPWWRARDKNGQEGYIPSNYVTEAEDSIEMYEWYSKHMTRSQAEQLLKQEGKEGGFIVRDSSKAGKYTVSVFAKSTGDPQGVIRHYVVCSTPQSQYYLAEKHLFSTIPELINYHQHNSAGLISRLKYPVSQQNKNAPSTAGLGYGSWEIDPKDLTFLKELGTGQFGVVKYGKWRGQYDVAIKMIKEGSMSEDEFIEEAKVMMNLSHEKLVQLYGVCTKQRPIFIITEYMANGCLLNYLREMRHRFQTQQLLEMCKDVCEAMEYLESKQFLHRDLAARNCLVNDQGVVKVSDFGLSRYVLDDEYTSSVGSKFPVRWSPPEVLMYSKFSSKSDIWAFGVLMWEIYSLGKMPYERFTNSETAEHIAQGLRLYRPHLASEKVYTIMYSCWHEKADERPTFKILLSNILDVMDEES

IC50 (Human liver cells): 324 µM
Fyn[IC50]/Btk[IC50] (Fyn): 453
LynA[IC50]/Btk[IC50] (LynA): 459
IC50 (Btk): 4 nM
Structure (SMILES): C=CC(=O)N1CC(n2c(=O)n(-c3ccc(Oc4ccccc4)cc3)c3c(N)ncnc32)C1 [Example 8, 9-(1-acryloyl-3-azetidinyl)-6-amino-7-(4-phenoxyphenyl)-7,9-dihydro-8H-purin-8-one]
IC50 [1]: 21 nM
IC50 [2]: > 10 µM
